Laboratory results reported in PubChem BioAssay AID256 (DTP/NCI, 2004).
Values joined by “and” are separate entries in the source; they are usually repeats but may differ in a detail not shown here. Equal entries are not always repeated. Inconclusive results and toxic doses are left out.

Tested on: CD2F1 mice, L1210 leukemia ip, survival T/C
Experiment: NCI In Vivo Anticancer Drug Screen. Data for tumor model L1210 Leukemia (intraperitoneal) in CD2F1 (CDF1) mice
Conditions: higher = longer survival
In short: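 Mice carrying a transplanted tumor received test compound or vehicle alone. The value is the measurement in the treated group divided by that in the vehicle-treated control group.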

[1] = endpoint: mean survival time, dose: 50.0 mg/kg/injection, schedule: Q01DX009 (ip), vehicle: saline with Tween-80
[2] = endpoint: mean survival time, dose: 100.0 mg/kg/injection, schedule: Q01DX009 (ip), vehicle: saline with Tween-80
[3] = endpoint: mean survival time, dose: 200.0 mg/kg/injection, schedule: Q01DX009 (ip), vehicle: saline with Tween-80
[4] = endpoint: mean survival time, dose: 50.0 mg/kg/injection, schedule: Q01DX009 (ip), vehicle: saline
[5] = endpoint: mean survival time, dose: 100.0 mg/kg/injection, schedule: Q01DX009 (ip), vehicle: saline
[6] = endpoint: mean survival time, dose: 100.0 mg/kg/injection, schedule: Q04DX003 (ip), vehicle: saline
[7] = endpoint: mean survival time, dose: 200.0 mg/kg/injection, schedule: Q01DX009 (ip), vehicle: saline
[8] = endpoint: mean survival time, dose: 400.0 mg/kg/injection, schedule: Q01DX009 (ip), vehicle: saline
[9] = endpoint: mean survival time, dose: 200.0 mg/kg/injection, schedule: Q04DX003 (ip), vehicle: saline with Tween-80
[10] = endpoint: mean survival time, dose: 25.0 mg/kg/injection, schedule: Q01DX009 (ip), vehicle: saline with Tween-80
[11] = endpoint: mean survival time, dose: 100.0 mg/kg/injection, schedule: Q04DX003 (ip), vehicle: saline with Tween-80
[12] = endpoint: mean survival time, dose: 400.0 mg/kg/injection, schedule: Q04DX003 (ip), vehicle: saline with Tween-80

With CCOC(=O)C/C(C)=C/c1ccccc1 (tested in a mixture with another compound) the T/C (endpoint: mean survival time, dose: 100.0 mg/kg/injection, schedule: Q01DX001 (ip), vehicle: saline with Tween-80) was 95 % of control, the T/C (endpoint: mean survival time, dose: 100.0 mg/kg/injection, schedule: Q04DX002 (ip), vehicle: saline with Tween-80) was 98 % of control and the T/C (endpoint: mean survival time, dose: 200.0 mg/kg/injection, schedule: Q01DX001 (ip), vehicle: saline with Tween-80) was 87 % of control. The T/C (endpoint: mean survival time, dose: 200.0 mg/kg/injection, schedule: Q04DX002 (ip), vehicle: saline with Tween-80) was 90 % of control, the T/C (endpoint: mean survival time, dose: 400.0 mg/kg/injection, schedule: Q01DX001 (ip), vehicle: saline with Tween-80) was 94 % of control and the T/C (endpoint: mean survival time, dose: 400.0 mg/kg/injection, schedule: Q04DX002 (ip), vehicle: saline with Tween-80) was 110 % of control.
In the case of CN1CC(C(=O)NC(C)(C)C)CC(c2ccccc2)C1 (configuration not stated), the T/C (endpoint: mean survival time, dose: 6.25 mg/kg/injection, schedule: Q01DX001 (ip), vehicle: saline with Tween-80) was 102 % of control, the T/C (endpoint: mean survival time, dose: 12.5 mg/kg/injection, schedule: Q01DX001 (ip), vehicle: saline with Tween-80) was 106 % of control and the T/C (endpoint: mean survival time, dose: 25.0 mg/kg/injection, schedule: Q01DX001 (ip), vehicle: saline with Tween-80) was 100 % of control.
In the case of CS(=O)(=O)Nc1ccc2c(c1)C(=O)c1ccccc1C2=O, the T/C [1] was 101 % of control, the T/C [2] was 101 % of control and the T/C [3] was 97 % of control.
COC(=O)Nc1nc2ccc(C(=O)c3cccs3)cc2[nH]1 was tested, and the T/C (endpoint: mean survival time, dose: 10.0 mg/kg/injection, schedule: Q04DX003 (ip), vehicle: Klucel (hydroxypropylcellulose) (HPC)) was 105 % of control, the T/C (endpoint: mean survival time, dose: 10.0 mg/kg/injection, schedule: Q04DX003 (ip), vehicle: other) was 107 % of control and the T/C (endpoint: mean survival time, dose: 20.0 mg/kg/injection, schedule: Q04DX003 (ip), vehicle: Klucel (hydroxypropylcellulose) (HPC)) was 110 % of control. For the same compound, the T/C (endpoint: mean survival time, dose: 40.0 mg/kg/injection, schedule: Q04DX003 (ip), vehicle: Klucel (hydroxypropylcellulose) (HPC)) was 120 % of control, the T/C (endpoint: mean survival time, dose: 40.0 mg/kg/injection, schedule: Q04DX003 (ip), vehicle: other) was 110 % of control and the T/C (endpoint: mean survival time, dose: 60.0 mg/kg/injection, schedule: Q04DX003 (ip), vehicle: saline) was 221 % of control. For the same compound, the T/C (endpoint: mean survival time, dose: 80.0 mg/kg/injection, schedule: Q04DX003 (ip), vehicle: Klucel (hydroxypropylcellulose) (HPC)) was 98 % of control and the T/C (endpoint: mean survival time, dose: 90.0 mg/kg/injection, schedule: Q04DX003 (ip), vehicle: saline) was 121 % of control.
With COc1ccc(C(O)c2ccccn2)cc1 (configuration not stated) the T/C [2] was 103 % of control, the T/C [3] was 97 % of control and the T/C (endpoint: mean survival time, dose: 400.0 mg/kg/injection, schedule: Q01DX009 (ip), vehicle: saline with Tween-80) was 90 % of control.
In the case of O=C(O)c1ccc(P(=O)(O)O)cc1[N+](=O)[O-], the T/C (endpoint: mean survival time, dose: 25.0 mg/kg/injection, schedule: Q01DX009 (ip), vehicle: saline) was 91 % of control and the T/C [4] was 86 % of control.
In the case of C[C@]12CC[C@H](OC3OC(CO)C(O)C(O)C3O)C[C@H]1CC[C@@H]1[C@@H]2CC[C@]2(C)[C@@H](C3=CCOC3=O)CC[C@]12O (some centres not stated), the T/C (endpoint: mean survival time, dose: 0.5 mg/kg/injection, schedule: Q01DX009 (ip), vehicle: saline) was 110 % of control, the T/C (endpoint: mean survival time, dose: 1.0 mg/kg/injection, schedule: Q01DX009 (ip), vehicle: saline) was 110 % of control and the T/C (endpoint: mean survival time, dose: 2.0 mg/kg/injection, schedule: Q01DX009 (ip), vehicle: saline) was 107 % of control. For the same compound, the T/C (endpoint: median survival time, dose: 0.5 mg/kg/injection, schedule: Q01DX009 (ip), vehicle: saline) was 112 % of control, the T/C (endpoint: median survival time, dose: 1.0 mg/kg/injection, schedule: Q01DX009 (ip), vehicle: saline) was 108 % of control and the T/C (endpoint: median survival time, dose: 2.0 mg/kg/injection, schedule: Q01DX009 (ip), vehicle: saline) was 113 % of control. For the same compound, the T/C (endpoint: median survival time, dose: 4.0 mg/kg/injection, schedule: Q01DX009 (ip), vehicle: saline) was 91 % of control.
CC(C)(C)CC(C)(C)c1ccc(OCCOc2ccc(S(=O)(=O)O)cc2[N+](=O)[O-])cc1 was tested, and the T/C (endpoint: mean survival time, dose: 100.0 mg/kg/injection, schedule: Q01DX001 (ip), vehicle: saline) was 102 % of control, the T/C (endpoint: mean survival time, dose: 200.0 mg/kg/injection, schedule: Q01DX001 (ip), vehicle: saline) was 102 % of control and the T/C (endpoint: mean survival time, dose: 400.0 mg/kg/injection, schedule: Q01DX001 (ip), vehicle: saline) was 98 % of control.
O=c1[nH]cc(F)c(=O)n1C1CCCCO1 (configuration not stated) was tested, and the T/C (endpoint: mean survival time, dose: 12.5 mg/kg/injection, schedule: Q01DX009 (ip), vehicle: saline) was 121 % of control, the T/C (endpoint: mean survival time, dose: 12.5 mg/kg/injection, schedule: Q04DX003 (ip), vehicle: saline) was 98 % of control and the T/C (endpoint: mean survival time, dose: 25.0 mg/kg/injection, schedule: Q04DX003 (ip), vehicle: saline) was 102 % of control. The T/C [4] was 156 % of control, the T/C (endpoint: mean survival time, dose: 50.0 mg/kg/injection, schedule: Q04DX003 (ip), vehicle: saline) was 98 % of control and the T/C [5] was 175 % of control and 184 % of control. The T/C [6] was 100 % of control.
With O=C(O)c1ccc(SSc2ccc(C(=O)O)cn2)nc1 the T/C [5] was 102 % of control, the T/C [7] was 96 % of control and the T/C [8] was 94 % of control.
In the case of Nc1ncnc(N)c1NC(=O)c1ccc(OCCOc2ccccc2)c(Cl)c1, the T/C [9] was 88 % of control.
With NC(CCl)=NCc1ccccn1 the T/C (endpoint: mean survival time, dose: 25.0 mg/kg/injection, schedule: Q04DX002 (ip), vehicle: saline) was 108 % of control, the T/C (endpoint: mean survival time, dose: 50.0 mg/kg/injection, schedule: Q04DX002 (ip), vehicle: saline) was 97 % of control and the T/C (endpoint: mean survival time, dose: 100.0 mg/kg/injection, schedule: Q04DX002 (ip), vehicle: saline) was 101 % of control.
For COC(=O)C1OC1(C)c1ccc(C)cc1 (configuration not stated), the T/C [10] was 89 % of control, the T/C [1] was 94 % of control and the T/C [2] was 93 % of control.
For CCC(NC(N)=O)C(CC)NC(N)=O (configuration not stated), the T/C (endpoint: median survival time, dose: 12.5 mg/kg/injection, schedule: Q01DX009 (ip), vehicle: saline with Tween-80) was 97 % of control, the T/C (endpoint: median survival time, dose: 25.0 mg/kg/injection, schedule: Q01DX009 (ip), vehicle: saline with Tween-80) was 96 % of control and the T/C (endpoint: median survival time, dose: 50.0 mg/kg/injection, schedule: Q01DX009 (ip), vehicle: saline with Tween-80) was 90 % of control.
In the case of CCOC(=O)C(OCc1ccccc1)(C(=O)N1CCCCCC1=O)C(C)C (configuration not stated), the T/C [11] was 100 % of control, the T/C [9] was 105 % of control and the T/C [12] was 96 % of control.
With Nc1nc(N)c2c(n1)NCN(Cc1ccc(Cl)c(Cl)c1)C2 the T/C (endpoint: mean survival time, dose: 0.75 mg/kg/injection, schedule: Q01DX009 (ip), vehicle: water) was 102 % of control, the T/C (endpoint: mean survival time, dose: 1.5 mg/kg/injection, schedule: Q01DX009 (ip), vehicle: water) was 98 % of control and the T/C (endpoint: mean survival time, dose: 3.0 mg/kg/injection, schedule: Q01DX009 (ip), vehicle: water) was 102 % of control. For the same compound, the T/C (endpoint: mean survival time, dose: 6.0 mg/kg/injection, schedule: Q01DX009 (ip), vehicle: water) was 102 % of control, the T/C (endpoint: mean survival time, dose: 12.0 mg/kg/injection, schedule: Q01DX009 (ip), vehicle: water) was 100 % of control and the T/C (endpoint: mean survival time, dose: 24.0 mg/kg/injection, schedule: Q01DX009 (ip), vehicle: water) was 102 % of control. For the same compound, the T/C (endpoint: mean survival time, dose: 50.0 mg/kg/injection, schedule: Q01DX009 (ip), vehicle: water) was 94 % of control.
O=C(NCCBr)Nc1ccccc1 was tested, and the T/C (endpoint: mean survival time, dose: 12.5 mg/kg/injection, schedule: Q04DX002 (ip), vehicle: Klucel (hydroxypropylcellulose) (HPC)) was 92 % of control, the T/C (endpoint: mean survival time, dose: 25.0 mg/kg/injection, schedule: Q04DX002 (ip), vehicle: Klucel (hydroxypropylcellulose) (HPC)) was 92 % of control and the T/C (endpoint: mean survival time, dose: 50.0 mg/kg/injection, schedule: Q04DX002 (ip), vehicle: Klucel (hydroxypropylcellulose) (HPC)) was 96 % of control.
In the case of O=[N+]([O-])C(CO)(CO)CO, the T/C [5] was 98 % of control, the T/C [7] was 96 % of control and the T/C [8] was 104 % of control.
In the case of COC(=N)c1ccc(Cl)cc1, the T/C [11] was 97 % of control, the T/C [9] was 103 % of control and the T/C [12] was 93 % of control.
COC1=CC(=O)C(OC)=C(OC)C1=O was tested, and the T/C (endpoint: mean survival time, dose: 3.12 mg/kg/injection, schedule: Q01DX009 (ip), vehicle: saline with Tween-80) was 94 % of control, the T/C (endpoint: mean survival time, dose: 6.25 mg/kg/injection, schedule: Q01DX009 (ip), vehicle: saline with Tween-80) was 97 % of control and the T/C (endpoint: mean survival time, dose: 12.5 mg/kg/injection, schedule: Q01DX009 (ip), vehicle: saline with Tween-80) was 97 % of control. The T/C [10] was 100 % of control and the T/C [1] was 105 % of control.
C=CC(=O)NC12CC3CC(CC(C3)C1)C2 was tested, and the T/C [6] was 100 % of control, the T/C (endpoint: mean survival time, dose: 200.0 mg/kg/injection, schedule: Q04DX003 (ip), vehicle: saline) was 101 % of control and the T/C (endpoint: mean survival time, dose: 400.0 mg/kg/injection, schedule: Q04DX003 (ip), vehicle: saline) was 101 % of control.
